The values that follow come from EP0272929B1, “Enkephalinase for therapeutic use” (GENENTECH, INC., priority 1986, dated 1988).

Where two headings read alike, the source gives them in different places.

Experiment [1] relates to ferret trachea. The conditions noted are these: for order of potency for stimulation of secretion: each tachykinin 10⁻⁵M; for potentiation of substance P-induced secretion: substance P 10⁻⁶M. Here is the method: (§1) Mucus secretion from tracheal segments of 36 ferrets was measured using methods described earlier (Borson, D.B. et al., J. Appl. Physiol. 57: 457-466 [1984]). Briefly, after anesthetizing adult male ferrets weighing 1-2 kg with sodium pentobarbital (45-60 mg/kg, ip), the trachea was removed and washed in medium 199/Earles HCO₃ bubbled with 95% O₂ - 5% CO₂ at 38°C. Tracheal segments were mounted in plastic Ussing-type chambers connected to perfusion chambers made of siliconized glass (MRA Inc., Clearwater, Florida). After exposing both sides to medium 199, 0.167 mCi Na₂.³⁵SO₄ was added to the submucosal side. At 15 minute intervals, the medium was drained from the luminal side and replaced with fresh unlabeled medium. Each sample was placed in dialysis tubing (Spectropore no. D1615-1; MW cutoff: 12-14,000) and exhaustively dialyzed with the rest of the samples from the experiment against at least 6 changes of distilled water (4 liters each) containing excess unlabeled SO₄ and sodium azide (10 mg/L) to prevent bacterial degradation of the macromolecules. After dialysis, the bound radioactivity of each sample was determined using a Beckman Instruments beta counter (model LS 7500). Molecular weight profiles of the materials secreted were determined by first desalting samples using a Sephadex G-50 column, then concentrating carbohydrate-containing molecules on DEAE Sephacel, and determining apparent molecular size under denaturing conditions (4 M guanidine, 10mM 2-mercaptoethanol, 0.1% Triton X-100) using a Sepharose CL-6B column.
(§2) Characteristics of the response to substance P including the time course, concentration dependence, and reproducibility were studied. Tracheal segments from 8 ferrets were incubated in the presence of radiolabel for 3 hours to which were added different concentrations of substance P (10⁻⁹M to 10⁻⁵M; Peninisula Labs, Belmont, CA). […] All treatments were randomized with regard to the site of sampling in the trachea to eliminate systematic bias.
(§3) The effects of endogenous proteinases were studied by incubating at least two tissues from each of 4 ferrets for 30 minutes in medium for 2.5 hours and adding a combination of nine (9) proteinase inhibitors to the submucosal side of each tissue (10 µg/mL each). The inhibitors used included leupeptin, antipain, pepstatin A, thiorphan, substance P₁₋₉ (Growcott, J.W. and Tarpey, A.V. Eur. J. Pharm. 84: 107-109 [1982]) and the angiotensin converting enzyme inhibitor, teprotide (Peninsula labs), aprotonin, BSA, and bacitracin (Sigma). Thirty minutes after addition of inhibitor, substance P (10⁻⁶M) was added to the submucosal side. […] The mean responses to substance P in the presence of inhibitors was compared with the mean responses of two control segments from each of the same animals.
(§4) The concentration-dependence of enkephalinase inhibition was explored by adding thiorphan in different concentrations to different tissues. To determine whether the secretory effect of substance P might be mediated indirectly via the release of endogenous enkephalins, we tested the effects of met-enkephalin (Peninsula Labs) on secretory responses.
(§5) We calculated the flux of bound SO₄ (^JSO₄) from the cpm in the dialyzed samples according to the equation modified from (Corrales, R.J. et al., J. Appl. Physiol. 56: 1076-1082 [1985]): ()^J SO4 (pmol SO4 (/cm)^2 /h) =(((cpm recovered/15 min x 4) x (811 x 10)^6 pmol cold SO4 /5mL))/((0.5 cm)^2 x cpm in 5.0 mL of hot-side medium) [formula]

Experiment [2] concerns ferret trachea. Description: Mucus secretion from ferret tracheal segments in Ussing-type chambers (release of 35SO4-labeled macromolecules, flux of bound SO4). Type of experiment: cell-based. Conditions: for potentiation of substance P-induced secretion: 10 µg/ml each, bestatin 10⁻⁵M (Fig. 4). How it is done: as §1, §2, §3, §4, §5
Experiment [3] concerns ferret tracheal smooth muscle. Briefly: Electrical field stimulation-induced contraction of isolated tracheal smooth muscle. It is filed as cell-based. Conditions: inhibitor 10⁻⁵ M, 15 min; tachykinins 10⁻⁷ M. How it is done: (§6) The tracheal rings were connected to strain gauges (Grass FT03) for continuous recording of isometric tension, and the rings were placed between two rectangular platinum electrodes (6 x 40 mm) for electrical field stimulation. The rings were initially stretched to a tension of 20 g for 30 seconds and were then allowed to equilibrate for 1 hour while resting tension was adjusted to 4 g (Skoogh, B-E. et al., J. Appl. Physiol. 53: 253-257 [1982]). During equilibration, the medium was changed every 15 minutes. […] Id.
Increasing concentrations of leu-thiorphan (10⁻¹¹ to 10⁻⁴ M) were added and the stimuli repeated to determine whether leu-thiorphan modulated electrical field stimulation-induced contractions. […] After determining control responses to electrical field stimulation (5 Hz), leu-thiorphan (10⁻⁵ M; 15 min) was added, the stimulus repeated, (DPro²,DTrp^7,9)substance P, the substance P antagonist (10⁻⁵ M; 15 min; Peninisula Labs) was added, and the stimulus was repeated.
(§7) Data were expressed as mean ± SE. For the dose-response curves to tachykinins the means between two groups at each concentration were analyzed by an unpaired t test. For the study of electrical field stimulation, responses were compared by one way analysis of variance and Newman-Keuls multiple range test. Significance was accepted at p<0.05.

In experiment [4] the test system is ferret tracheal smooth muscle. Description: Isometric tension of isolated tracheal smooth muscle rings (contraction by peptides, effect of inhibitors). Type of experiment: cell-based. How it is done: (§8) Twenty-seven ferrets were anesthetized with pentobarbital sodium (45-60 mg/kg, i.p.), and the trachea were removed. Transverse rings (8 mm long) were cut from the trachea and mounted in glass chambers filled with 14 ml of Krebs-Henseleit solution of the following composition (in mMoles/L): NaCl 118, KCl 5.9, CaCl₂ 2.5, MgSO₄ 1.2, NaH₂PO4 1.2, NaHCO₃ 25.5, glucose 5.6, 0.1% bovine serum albumin, and penicillin-streptomycin (100 Units/ml). The soluiton was maintained at 37°C and was aerated continuously in a mixture of 95% O₂-5% CO₂, which produced a pH of 7.4. Six tracheal rings were studied concurrently.
The tracheal rings were connected to strain gauges (Grass FT03) for continuous recording of isometric tension, and the rings were placed between two rectangular platinum electrodes (6 x 40 mm) for electrical field stimulation. The rings were initially stretched to a tension of 20 g for 30 seconds and were then allowed to equilibrate for 1 hour while resting tension was adjusted to 4 g (Skoogh, B-E. et al., J. Appl. Physiol. 53: 253-257 [1982]). During equilibration, the medium was changed every 15 minutes. […] Id. […]
The methods used to excise tracheal tissue, mount and electrically stimulate the tissue were identical to those described above. The responses to tachykinins and to leu-thiorphan, cumulative dose-response curves to substance P (Peninsula Labs), neurokinin A (Peninisula Labs) and neurokinin B (Peninsula Labs) were obtained using concentrations ranging from 10⁻¹¹ M to 10⁻⁵ M in the presence and absence of leu-thiorphan (10⁻⁵ M, 15 min; Squibb Pharmaceutical). Each succeeding concentration of tachykinin was added after the previous contraction had reached a plateau.
as §7
The methods used were the same as those described in Example 7.

The test system of experiment [5] is ferret tracheal smooth muscle. The description is as above. It is filed as cell-based. How it is done:
as §8, §6
The responsiveness to substance P (using concentrations ranging from 10⁻⁸ M to 10⁻⁵ M) and to leu-thiorphan and cumulative dose-response curves to substance P (Peninsula Labs) were obtained. Each succeeding concentration of substance P was added after contraction reached a plateau. After completion of the first dose-response curve to substance P, leu-thiorphan (10⁻⁵ M, Squibb Pharmaceutical) was added to the organ bath. Following a 15 minute incubation, a second dose-response curve to substance P was obtained.
The N-terminal fragment, substance P₁₋₉ was studied because enkephalinase cleaves substance P between the 9 and 10 positions (Matsas, R. et al., Proc. Natl. Acad. Sci. [USA] 80: 3111-3115 [1983]), generating that fragment. (10⁻⁵ M Peninsula Labs). Experiments were also carried out with (DPro², DTrp^7,9)-substance P (10⁻⁵ M) (Peninsula Labs), a substance P antagonist (Hakanson, R. et al., Br. J. Pharmac. 77: 697-700 [1982]) by adding the antagonist after the response to substance P (10⁻⁶ M) and leu-thiorphan (10⁻⁵ M) reached a plateau.
Data were expressed as mean ± SE. For the dose-response curves to substance P, the means between two groups at each concentration were compared by a paired t test. For the studies of electrical field stimulation, responses were compared by one way analysis of variance and Newman-Keuls multiple range test. Significance was accepted at P < 0.05. […]
The source holds these as a separate data set.

Another experiment has as its system neutrophils. Briefly: Neutrophil chemotaxis assay (Chemotaxis kit, 5 µm filter). Type of experiment: cell-based. Conditions: Homo sapiens, Formyl Met-Leu-Phe 1µM + inhibitor 10µM, 1 hr at 37°C, read-out: Neutrophil Migration (% control). How it is done:
As assay was used to test the effects of enkephalinase on neutrophil chemotaxis. A commercially available chemotactic assay (Chemotaxis kit, Neuroprobe, Cabin John, Md) was used and modified as described below. Neutrophils were isolated by sedimentation over dextran from peripheral blood of human donors. A sample of neutrophils is placed over a 5 µm filter in a chemotaxis chamber containing aliquots of test material. Three to six replicates were run for each test for 1 hr. at 37°C. The number of migrating neutrophils in each chamber is then counted. The chemotactic potential is evaluated by the number of cells in five selected unit areas.
Various specific inhibitors of enkephalinase were used to determine the role of enkephalinase in chemotaxis of neutrophils. Chemotactic activity is reported as the total number of neutrophils observed in five fields of the kit membrane under 100X magnification. Thus, the larger the number the more chemotactic was a particular test composition.

Setting [6] is: presence of phosphoramidon 10⁻⁵M.
Where [7] appears, read: inhibitor 10⁻⁴M, substance P 10⁻⁶M.

For the compound physalaemin, the “order of potency for stimulation of secretion” value (“order of potency” below) in the experiment with ferret trachea [1] (absence of phosphoramidon) is listed as “substance P> physalaemin=eledoisin=kassinin > neurokinin A”; in the experiment with ferret trachea [1] (setting [6]), “Substance P=neurokinin A=physalaemin=eledoisin=kassinin>neurokinin B”.
Regarding eledoisin, the “order of potency” value in the experiment with ferret trachea [1] (absence of phosphoramidon) was “substance P> physalaemin=eledoisin=kassinin > neurokinin A”; with ferret trachea [1] (setting [6]), “Substance P=neurokinin A=physalaemin=eledoisin=kassinin>neurokinin B”.
On to `CSCC[C@H](NC(=O)[C@H](CC(C)C)NC(=O)CNC(=O)[C@H](Cc1ccccc1)NC(=O)[C@H](Cc1ccccc1)NC(=O)[C@H](CCC(N)=O)NC(=O)[C@H](CCC(N)=O)NC(=O)[C@@H]1CCCN1C(=O)[C@H](CCCCN)NC(=O)[C@@H]1CCCN1C(=O)[C@@H](N)CCCNC(=N)N)C(N)=O` [substance P], for which the “flux of bound SO₄ above the pre-stimulus baseline” value in the experiment on ferret trachea [1] (10 µM) is reported as 155 ± 42%.
kassinin: the “order of potency” value was “substance P> physalaemin=eledoisin=kassinin > neurokinin A” in the experiment on ferret trachea [1] (absence of phosphoramidon) and “Substance P=neurokinin A=physalaemin=eledoisin=kassinin>neurokinin B” with ferret trachea [1] (setting [6]).
`CC(=O)N[C@@H](CC(C)C)C(=O)N[C@@H](CC(C)C)C(=O)N[C@H](C=O)CCCNC(=N)N` [leupeptin]: the “potentiation of substance P-induced secretion” value in the experiment with ferret trachea [2] (substance P 10⁻⁶M) was “failed to potentiate substance P-induced secretion”. Besides, the “potentiation of the response to electrical field stimulation in the presence of substance P, neurokinin A or neurokinin B” value in experiment [3] is recorded as “did not”.
With “bradykinin (RPPGFSPFR; Bradykinin; UniProt P01042 381-389, looked up)”, in experiment [4] (10⁻¹¹ to 10⁻⁵ M), the “contraction” value is recorded as “caused contraction in a dose-dependent fashion”. Further, the relative contractile potency entry is “more potent that lys-bradykinin” in experiment [4] (absence of enkephalinase inhibitors) and “equally potent” in experiment [4] (presence of Leu-thiorphan).
On to teprotide, for which, in the experiment on ferret trachea [1] (inhibitor 10⁻⁴M (Fig. 4), not significantly different from control), the “potentiation of substance P-induced secretion” value is 49 ± 39%.
As for `CC(C)C[C@H](NC(=O)[C@@H](O)[C@H](N)Cc1ccccc1)C(=O)O` [bestatin], in the experiment with ferret trachea [2] (substance P 10⁻⁶M), the “potentiation of substance P-induced secretion” value is recorded as “failed to potentiate substance P-induced secretion”. Moreover, in experiment [3], the “potentiation of the response to electrical field stimulation in the presence of substance P, neurokinin A or neurokinin B” value was “did not”.
With `CN1[C@@H]2CC[C@H]1C[C@@H](OC(=O)C(CO)c1ccccc1)C2` (some centres unmarked) [atropine], in experiment [5], the “effect on SP plus leu-thiorphan-induced contractions” value was “decreased SP plus leu-thiorphan-induced contractions significantly”.
Consider `CC(C)C[C@H](NP(=O)(O)O[C@@H]1O[C@@H](C)[C@H](O)[C@@H](O)[C@H]1O)C(=O)N[C@@H](Cc1c[nH]c2ccccc12)C(=O)O` [phosphoramidon], for which the activity at 10 µM with neutrophils came out at 65%. For the same compound, in the experiment with ferret trachea [2] (10⁻⁵M, 30 min pretreatment, tachykinins 10⁻⁵M), the “effect on secretory responses to each tachykinin” value was “significantly increased”. The “substance P-induced increase in flux in inhibitor-treated tissues” value in the experiment with ferret trachea [2] (inhibitor 10⁻⁵M, substance P 10⁻⁶M) came to 357 ± 91.9 pmol bound SO₄/cm²/h.
`C[C@H](CS)C(=O)N1CCC[C@H]1C(=O)O` [captopril]: the activation at 100 µM in the experiment with ferret trachea [2] (Mustela putorius, inhibitor 10⁻⁴M (Fig. 4), substance P 10⁻⁶M, not significantly different from control, read-out: potentiation of substance P-induced secretion) came out at 44 ± 27%. In experiment [3], the “potentiation of the response to electrical field stimulation in the presence of substance P, neurokinin A or neurokinin B” value is given as “did not”.
With bacitracin, the “potentiation of substance P-induced secretion” value with ferret trachea [1] (10 µg/ml each, bestatin 10⁻⁵M (Fig. 4)) was “failed to potentiate substance P-induced secretion”.
Consider `O=C(O)CNC(=O)C(CS)Cc1ccccc1` (centres unmarked) [thiorphan], for which the activity at 10 µM in the experiment with neutrophils amounted to 29 ± 19%. For the same compound, the “increase in flux of bound SO₄ by the inhibitor by itself” value in the experiment on ferret trachea [2] (10⁻⁴M, submucosal side) was 57 ± 17.8 pmol bound SO₄/cm²/h. Moreover, the minimal effective concentration with ferret trachea [2] (Mustela putorius, substance P 10⁻⁶M, read-out: threshold of potentiation of the secretory response to substance P) was about 0.01 µM. Moreover, in the experiment on ferret trachea [2] (setting [7]), the “response to substance P, % of control” value was 502 ± 147% and the “substance P-induced increase in flux of bound SO₄ in inhibitor-pretreated tissue” value is 268.0 ± 58.0 pmol/cm²/h. Besides, in the experiment on ferret trachea [2] (test of additivity), the “sum of the individual effects as % of the response to substance P in the presence of the inhibitor” value is 51%; the “sum of the individual effects of substance P and inhibitor” value is 136.2 pmol bound SO₄/cm²/h.
